Reference: article PMC2683906 (Chemical research in toxicology, 2009)

Tests used:
[1] = buffer, pH 7.4
[2] = buffer, pH 9
[3] = buffer, pH 9; remark: listed apart in the source
globin = settings: rats and mice exposed to 1,3-[2,3-14C]-butadiene; cited from earlier work
[4] = cited from earlier work
[5] = 6.25 to 1000 ppm, mice and rats; cited from earlier work
[6] = rodents given BDD or BMO; cited from earlier work
[7] = cited from earlier work; remark: listed apart in the source

Structure (SMILES): C=CC(=O)CO [HMVK, hydroxymethylvinyl ketone]
- Half-life of HMVK in the absence of nucleophilic amino acids [1]: a Half-life of HMVK when incubated at a concentration of 3 mM at pH 7.4, 37 °C in the absence of nucleophilic amino acids was determined to be 710 min. ND, not determined. Half-lives were estimated assuming pseudo-first order kinetics. Data is representative of typical experimental values.
- Estimated half-life of HMVK, HMVK + NAL [2]: 45 min
- Time at which all of HMVK was consumed (HMVK 3 mM, NAC 6 mM, pH 7.4, 37 °C): 0.5 h
- Estimated half-life of HMVK, HMVK + NAC (buffer, pH 7.4): instantaneous
- Estimated half-life of HMVK, HMVK + L-valinamide [3]: 13.5 min

Structure (SMILES): C=[14CH][14CH]=C [1,3-[2,3-^14C]-butadiene]
- Total globin radioactivity characterized as trihydroxybutyl adducts (globin): 1−2%

Structure (SMILES): C=CC=C [BD, 1,3-Butadiene]
- International Agency for Research on Cancer classification [4]: are carcinogenic to humans
- National Toxicology Program classification [4]: known to be a human carcinogen
- Tumor formation after long-term inhalation exposure [5]: tumor formation at multiple organ sites

Structure (SMILES): C=CC(O)CO (centres unmarked) [BDD, 3-butene-1,2-diol]
- Amount of BDD detected in the urine [6]: < 5%
- HMVK-derived mercapturates as share of the administered BDD dose [7]: 4−8%
